From patent US5523315A, “N-(hydroxyethyl)butanediamide derivatives” (Bio-Mega/Boehringer Ingelheim Research Inc., priority 1993, dated 1996) come the findings set out here.

This experiment concerns the target T1, human renin (Homo sapiens, UniProt P00797).
T1 construct: A human plasma pool is used as the source of both the substrate (angiotensinogen) and the enzyme (renin); from tissue; host or cells: pooled human plasma
T1 sequence (P00797 67-406): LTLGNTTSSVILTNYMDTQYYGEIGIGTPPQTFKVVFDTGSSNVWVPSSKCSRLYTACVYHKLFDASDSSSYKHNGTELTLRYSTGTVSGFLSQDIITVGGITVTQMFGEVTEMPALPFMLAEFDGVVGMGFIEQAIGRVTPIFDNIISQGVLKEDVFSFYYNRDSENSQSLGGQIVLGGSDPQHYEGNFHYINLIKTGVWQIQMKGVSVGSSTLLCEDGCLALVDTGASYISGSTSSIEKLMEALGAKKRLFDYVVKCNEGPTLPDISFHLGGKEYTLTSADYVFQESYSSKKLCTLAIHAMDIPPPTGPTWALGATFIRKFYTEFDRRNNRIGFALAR
In words: plasma renin assay (inhibition of human renin; angiotensin I generated, measured by radioimmunoassay). Conditions: human plasma pool, pH 6.0, 2 h incubation at 37°. The format is biochemical. In a few lines: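 Pooled human plasma supplies both renin and angiotensinogen; inhibitor in MES/1% HSA buffer (1% DMSO final) incubated 2 h at 37° at pH 6.0. Angiotensin I generated quantified by radioimmunoassay, inhibition relative to no-inhibitor control, IC50 by nonlinear regression.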
As for `CC(C)C[C@H](O)[C@H](O)[C@H](CC1CCCCC1)NC(=O)[C@@H](CC(=O)N[C@@H](CO)Cc1ccccc1)CC1CC1` [Compound 13, N^4-(R)-[1-(hydroxymethyl)-2-phenylethyl]-N^1-[1(S)-(cyclohexylmethyl)-2(R),3(S)-dihydroxy-5-methylhexyl]-2(R)-(cyclopropylmethyl)butanediamide], the IC50 (as a rule, the midpoint of a concentration-inhibition curve) stood at 89 nM.

Turning to `CC(C)C[C@H](O)[C@H](O)[C@H](CC1CCCCC1)NC(=O)[C@@H](CC(=O)N(Cc1ccccc1)CC1(O)CCCCC1)Cc1cscn1` [Compound 27, N^4-benzyl-N^4-[ (1-hydroxycyclohexyl)methyl]-N^1-[1(S)-(cyclohexylmethyl)-2(R),3(S)-dihydroxy-5-methylhexyl]-2(R)-(4-thiazolylmethyl)butanediamide], half-maximal inhibition (IC50) required 15 nM. As to `CC(C)C[C@H](O)[C@H](O)[C@H](CC1CCCCC1)NC(=O)[C@@H](CC(=O)N(CC1CCCC1)CC(C)(C)O)Cc1csc(N)n1` [Compound 47, N^4-(cyclopentylmethyl)-N^4-(2-hydroxy-2-methylpropyl)-N^1-[1(S)-(cyclohexylmethyl)-2(R),3(S)-dihydroxy-5-methylhexyl]-2(R)-[(2-amino-4-thiazolyl)methyl]butanediamide], the IC50 came out at 7 nM. Compound `CC(C)C[C@H](O)[C@H](O)[C@H](CC1CCCCC1)NC(=O)[C@@H](CC(=O)N(CC(=O)C(C)C)CC1CCCCC1)Cc1csc(N)n1` [Compound 63, N^4-(cyclohexylmethyl)-N^4-(3-methyl-2-oxobutyl)-N^1-[1(S)-(cyclohexylmethyl)-2(R),3(S)-dihydroxy-5-methylhexyl]-2(R)-[(2-amino-4-thiazolyl)methyl]butanediamide] registered an IC50 of 5 nM. As to `CC(C)C[C@H](O)[C@H](O)[C@H](CC1CCCCC1)NC(=O)[C@@H](CC(=O)NCC(O)c1ccccn1)CC1CC1` (mixture of isomers) [Compound 22, N^4-[2(R,S)-hydroxy-2-(2-pyridinyl)ethyl]-N^1-[1(S)-(cyclohexylmethyl)-2(R),3(S)-dihydroxy-5-methylhexyl]-2(R)-(cyclopropylmethyl)butanediamide], half-maximal inhibition (IC50) was put at 170 nM.

`CC(C)C[C@H](O)[C@H](O)[C@H](CC1CCCCC1)NC(=O)[C@@H](CC(=O)N(CC(=O)N(C)C)CC1(O)CCCCCCC1)Cc1csc(N)n1` [Compound 56, N^4-[(1-hydroxycyclooctyl)methyl]-N^4-[2-(dimethylamino)-2-oxoethyl]-N^1-[1(S)-(cyclohexylmethyl)-2(R),3(S)-dihydroxy-5-methylhexyl]-2(R)-[(2-amino-4-thiazolyl)methyl]butanediamide] returned an IC50 of 1 nM. `CC(C)C[C@H](O)[C@H](O)[C@H](CC1CCCCC1)NC(=O)[C@@H](CC(=O)N(Cc1ccco1)CC(C)(C)O)Cc1csc(N)n1` [Compound 55, N^4-(2-furanylmethyl)-N^4-(2-hydroxy-2-methylpropyl)-N^1-[1(S)-(cyclohexylmethyl)-2(R),3(S)-dihydroxy-5-methylhexyl]-2(R)-[(2-amino-4-thiazolyl)methyl]butanediamide] had an IC50 of 21 nM.

Take `CCC[C@H](CC(=O)N(Cc1ccccc1)CC1(O)CCCCC1)C(=O)N[C@@H](CC1CCCCC1)[C@@H](O)[C@@H](O)CC(C)C` [Compound 2, N^4-benzyl-N^4-[(1-hydroxycyclohexyl)methyl]-N^1-[1(S)-(cyclohexylmethyl)-2(R),3(S)-dihydroxy-5-methylhexyl]-2(R)-propylbutanediamide]: half-maximal inhibition (IC50) required 27 nM. In turn, `CC(C)C[C@H](O)[C@H](O)[C@H](CC1CCCCC1)NC(=O)[C@@H](CC(=O)N(CCO)CC1(O)CCCCC1)CC1CC1` [Compound 5, N^4-[(1-hydroxycyclohexyl)methyl]-N^4-(2-hydroxyethyl)-N^1-[1(S)-(cyclohexylmethyl)-2(R),3(S)-dihydroxy-5-methylhexyl]-2(R)-(cyclopropylmethyl)butanediamide] gave an IC50 of 35 nM.
